Assay results published in publication PMC3845832 (Clinical cancer research : an official journal of the …, 2013).
Read-outs that look alike come from different tables or passages of the source. Blank lines part the entries; values can stand above or below the molecule they belong to.

Columns and labels:
CLL patients [1] = details: human, in vivo
refractory CLL patients = details: pharmacokinetically guided dosing, cited from earlier work
CLL patients [2] = assay: Tumor lysis syndrome; format: in vivo, human
clinical = details: human, in vivo
CLL patients [3] = details: cited from earlier work
UGT1A1 or UGT1A4 = details: in vitro; cited from earlier work
[4] = Dinaciclib clearance pathways; details: unpublished data
UGT1A9 = details: in vitro; cited from earlier work
CLL patients [5] = assay: Population PK-PD logistic regression model of TLS probability in Cycle 1; details: linear function, day 1 or 8; p<0.01 for significance

Exposure (Cmax or AUC) as predictor of TLS in the model (CLL patients [1]): did not improve the model
Patients who had TLS in the first cycle (CLL patients [2]; 111 patients of phase I and II studies): 43%
Number of patients having TLS (CLL patients [2]; Day 1, Cycle 1): 25
Lower CL in females compared to males (clinical; both): 12.3%
Vd (clinical): 75.8 L
clearance (clinical; iv): 568 mL/min
Molecule: CN1CC[C@H](c2c(O)cc(O)c3c(=O)cc(-c4ccccc4Cl)oc23)[C@H](O)C1 [flavopiridol]
Patients achieving objective responses (refractory CLL patients; phase I trial): 40%
Patients achieving objective responses (refractory CLL patients; phase II trial): 53%
Patients in whom TLS (dose-limiting toxicity) was observed (CLL patients [3]; two trials, pharmacokinetically guided dosing regimen): 53 out of 116

Molecule: CN1CCC(c2c(O)cc(O[C@@H]3O[C@H](C(=O)O)[C@@H](O)[C@H](O)[C@H]3O)c3c(=O)cc(-c4ccccc4Cl)oc23)C(O)C1 (stereo partly drawn) [Flavo-5-G, 5-O-β-glucopyranuronosyl-flavopiridol]
Share of glucuronidation product (UGT1A1 or UGT1A4): minor glucuronidation product

Role of glucuronidation in clearance [4]: clearly important
Molecule: CCc1cnn2c(NCc3ccc[n+]([O-])c3)cc(N3CCCC[C@H]3CCO)nc12 [dinaciclib]
TLS in treated CLL patients (CLL patients [3]): observed

Molecule: CN1CC[C@H](c2c(O[C@@H]3O[C@H](C(=O)O)[C@@H](O)[C@H](O)[C@H]3O)cc(O)c3c(=O)cc(-c4ccccc4Cl)oc23)[C@H](O)C1 [Flavo-7-G, 7-O-β-glucopyranuronosyl-flavopiridol]
Share of glucuronidation product (UGT1A9): 98.5%

Molecule: flavopiridol glucuronide [flavo-G]
Exposure (Cmax or AUC) as predictor of TLS in the model (CLL patients [5]): significant decrease in OFV
AUC, median value (clinical): 13600 ng·h/mL
AUC, range (clinical): 3210 to 141000 ng·h/mL
